Data published in patent publication US5264207A, “Products for cutaneous applications with cosmetic and/or therapeutic effects” (EXSYMOL S.A.M., priority 1989, dated 1993).

What was measured:
[1] = time of release/action of active substances after application to the skin; assay type: in vivo; conditions: for time of release on application to the skin: Example 4, product as it is or mixed with cosmetic cream, gel or lotion
Procedure: The microspheres are constituted by a copolymer of 2 moles of styrene with 2 moles of butadiene and 1 mole of 2-aminoethanol methacrylate. They are prepared in the known manner, in aqueous dispersion with Na dodecylsulfate as a surfactant and K persulfate as a catalyst. After polymerization, the microspheres are neutralized, purified by aqueous dialysis and passed over an ion-exchange resin.
0.09 g of pyrrolidone carboxylic acid, which binds to the methacrylate --NH2 group forming a covalent amide bond, is added to 100 ml of suspension of 4 g of these microspheres numbering […] (average size 96 nm). Another purification is then carried out and 6.1 g of dimethyl silanol hyaluronate, the same as in example 1, are added to the suspension and adsorbed.
The resulting suspension of 106.1 g thus contains 0.09 g of pyrrolidone carboxylic acid and 0.28 g of the Si contained in dimethyl silanol hyaluronate. Application to the skin of the product as it is, or mixed with a cosmetic cream, gel or lotion leads to release of the pyrrolidone compound in 2 to 5 hours and release of the hyaluronate compound in 10 to 17 hours. A synergetic effect of the two active substances is also observed for 2 to 5 hours, followed by a longer period of hyaluronate action only.
The microspheres prepared in the known manner, described at the beginning of example 4, consist of a copolymer of 4 moles of styrene with 1 mole of acrylic acid.
(A)-100 g of an aqueous suspension of 5 g of microspheres are reacted with 0.126 g of theophylline, which binds to the acryl groups.
(B)-The microspheres are then given functional groups using diamine hexamethylene, after which they are treated with a 40 g/kg elastin aqueous solution. 0.3 g of elastin polypeptides thus bind to the copolymer.
(C)-The product obtained is purified and made to adsorb Ruscus Aculeatus glucosides, from an aqueous extract of this plant (Ruscus 1=33).

[2] = Procedure: 100 g of an aqueous suspension of 5 g of nanospheres having a diameter of about 70 to 130 nm (average 100 nm) are prepared by the copolymerization of an emulsion of 4 moles of styrene and 1 mole of acrylic acid, according to the technique described in example 2. 0.126 g of theophylline, which binds to the acrylic acid groups of the copolymer by an electronic-type chemical interaction, is added to these 100 g.
A liquid product (a-b) composed of two sets of copolymer/active substance nanospheres is thus obtained:
The liquid (a-b) is submitted to tests on an experimental model, reproducing diffusion phenomena in the skin.
The proportions of each of the active substances which may have been in contact with the skin in 3 hours is thus determined.
Given below are the percentages of the initial amount of each of these active substances which, according to the tests mentioned hereinabove, may have been diffused into the skin from the liquid studied:
They thus contained no --COOH groups likely to react with the --NH groups of theophylline. […]
As above, the amount of active principal available to the skin in 3 hours was determined. […]
The proportion of theophylline which is available to the skin in 3 hours and in 5 hours is then determined from 100 g of an aqueous suspension of 5 g of nanosphere charged as described above. […]

[3] = adsorption (charging) of active substance onto copolymer microspheres/nanospheres; assay type: physicochemical; conditions: 60% styrene / 40% methyl methacrylate copolymer, average 95 nm; room temperature, 48 hours

| Compound | time of release on application to the skin [1] [h] | time of action after application ([1]; in vivo) [h] | amount available to the skin, tempering ratio without : with nanospheres [2] [times] | amount of active principal available to the skin in 3 hours [2] [%] | microspheres are charged with dimethylsilanediol hyaluronate [3] [%] |
| --- | --- | --- | --- | --- | --- |
| O=C1CC[C@@H](C(=O)O)N1 [pyrrolidone carboxylic acid] | 2 to 5 |  |  |  |  |
| Cn1c(=O)c2[nH]cnc2n(C)c1=O [theophylline] |  | 2 to 8 | 2.5 | 20 |  |
| dimethylsilanediol hyaluronate | 10 to 17 |  |  |  | 30 |
